In assay [1] the test system is anaesthetised male Sprague Dawley rats. The assay is described as follows: Phenylephrine-induced acute arterial hypertension and SNP-induced blood pressure response (MAP). The class given is in vivo. As to conditions: 3 mg/kg orally 90 min prior to SNP (30 μg/kg i.v.); continuous i.v. PE-infusion; vs. placebo. From the text: Nitric oxide regulates smooth muscle tone by elevation of cGMP via activation of guanylate cyclase and subsequent activation of cyclic GMP-dependent protein kinase. The amplitude and duration of the cGMP signal in smooth muscle is largely regulated by cGMP-specific cyclic nucleotide phosphodiesterase 5 (PDE5). […] The aim of the study was to evaluate the effects of the selective PDE5 inhibitors described in this present subject matter on phenylephrine-induced acute arterial hypertension and sodium-nitroprusside (SNP) induced blood pressure response in anaesthetised male Sprague Dawley rats.
The test compound (suspended in a 4% w/v aqueous methylcellulose solution 3 mg/kg) or placebo (i.e. 4% aqueous methylcellulose solution) is administered orally to conscious Sprague Dawley rats 90 min prior to SNP administration. 40 min later, rats are anaesthetised by intramuscular administration of 80 mg/kg ketamine-HCl+4 mg/kg xylazin-HCl and ventilated with ˜1.5% isoflurane in a mixture of ambient air and 40% oxygen. Catheters for i.v. PE- and SNP-administration and recording of mean arterial blood pressure (MAP) are inserted. […] To assess the effect of test compounds (PDE5 inhibitory activity) in comparison to placebo, MAP response is analysed. […]

The target of assay [2] is T1, PDE5A1 (human PDE5 from platelets) (Homo sapiens, UniProt O76074).
T1 construct: from tissue; host or cells: platelets from fresh blood of human donors (10,000 g supernatant of sonified platelets)
The assay is described as follows: Inhibition of type 5 phosphodiesterase (PDE5) activity, modified SPA test. The class given is biochemical. As to conditions: PDE5-containing human platelet lysate, 0.5 μM cGMP, value classes, read-out: PDE5A1 inhibitory values [measured as −logIC50 (mol/l)] (converted). Put shortly:
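Enzyme source: human platelet lysate (10,000 g supernatant), with 1 μM motapizone and 10 nM PDE2 inhibitor present. SPA format in 20 mM Tris pH 7.4, 5 mM Mg2+, 0.5 μM cGMP with [3H]cGMP tracer; 5 min preincubation at 37 °C, 15 min reaction, stopped with IBMX-containing beads. IC50 by non-linear regression.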

Where only a bound is given, the exact number is not on record here.

For the molecule `CC(=O)N1CCC(NC(=O)c2c(C)[nH]c3c(-c4c(OCC5CC5)ccc5c4OCO5)ccnc23)CC1` [Example E01, N-(1-Acetylpiperidin-4-yl)-7-[5-(cyclopropylmethoxy)-1,3-benzodioxol-4-yl]-2-methyl-1H-pyrrolo[3,2-b]pyridine-3-carboxamide], the “efficacy (% change vs. control), corr. AUCMAP 0-180 s following SNP-administration” value in assay [1] is reported as ~−27%. Further, the IC50 in assay [2] is < 1 nM.
The like results for `Cc1[nH]c2c(-c3c(OCC4CC4)ccc4c3OCO4)ccnc2c1C(=O)NC1CCN(C(=O)[C@H](C)O)CC1` [Example F02, 7-[5-(Cyclopropylmethoxy)-1,3-benzodioxol-4-yl]-N-{1-[(2S)-2-hydroxypropanoyl]piperidin-4-yl}-2-methyl-1H-pyrrolo[3,2-b]pyridine-3-carboxamide] were, in that order, ~−27% and < 1 nM.
